Like-named read-outs stand apart in the source and are kept apart here.
How the values were obtained:
human HDAC2 = human HDAC2 (Homo sapiens (Human), UniProt Q92769); assay: HDAC2 inhibition assay (modified FLUOR DE LYS, 384-well); format: biochemical; conditions: […] enzyme, 40 μM substrate BML-KI104, 3 h pre-incubation; read-out: HDAC2 IC50
human HDAC8 = human HDAC8 (Homo sapiens (Human), UniProt Q9BY41); assay: HDAC8 inhibition assay (modified FLUOR DE LYS, 384-well); format: biochemical; conditions: […] enzyme, 200 μM substrate BML-KI178, 3 h pre-incubation; read-out: HDAC8 IC50
human HDAC8, sequence (Q9BY41 whole entry): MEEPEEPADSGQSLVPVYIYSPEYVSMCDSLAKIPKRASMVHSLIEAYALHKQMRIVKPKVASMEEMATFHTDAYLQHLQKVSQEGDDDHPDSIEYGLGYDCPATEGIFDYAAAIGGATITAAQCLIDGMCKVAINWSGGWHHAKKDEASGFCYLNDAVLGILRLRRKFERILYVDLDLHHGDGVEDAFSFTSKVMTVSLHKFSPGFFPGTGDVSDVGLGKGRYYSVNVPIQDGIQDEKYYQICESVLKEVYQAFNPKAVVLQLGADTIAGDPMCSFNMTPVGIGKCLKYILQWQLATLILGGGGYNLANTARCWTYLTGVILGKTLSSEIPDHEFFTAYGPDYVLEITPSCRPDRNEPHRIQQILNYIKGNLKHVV

human HDAC1 = human HDAC1 (Homo sapiens (Human), UniProt Q13547)
human HDAC1, sequence (Q13547 whole entry): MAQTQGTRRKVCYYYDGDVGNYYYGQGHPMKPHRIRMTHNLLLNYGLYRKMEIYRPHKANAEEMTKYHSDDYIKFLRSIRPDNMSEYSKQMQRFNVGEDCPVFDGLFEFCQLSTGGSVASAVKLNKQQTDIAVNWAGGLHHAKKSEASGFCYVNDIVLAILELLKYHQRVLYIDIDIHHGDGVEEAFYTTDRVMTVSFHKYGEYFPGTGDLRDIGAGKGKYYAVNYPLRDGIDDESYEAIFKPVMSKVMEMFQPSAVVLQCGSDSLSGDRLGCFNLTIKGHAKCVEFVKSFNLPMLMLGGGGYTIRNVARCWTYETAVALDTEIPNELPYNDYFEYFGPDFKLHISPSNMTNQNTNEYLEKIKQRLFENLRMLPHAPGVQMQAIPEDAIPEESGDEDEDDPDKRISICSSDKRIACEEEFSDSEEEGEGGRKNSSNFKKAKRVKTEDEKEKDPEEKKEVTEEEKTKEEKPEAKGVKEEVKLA

[1] = biological target: human HDAC3/SMRT heterodimer (Homo sapiens (Human), UniProt O15379)
human HDAC3/SMRT heterodimer, sequence (O15379 whole entry): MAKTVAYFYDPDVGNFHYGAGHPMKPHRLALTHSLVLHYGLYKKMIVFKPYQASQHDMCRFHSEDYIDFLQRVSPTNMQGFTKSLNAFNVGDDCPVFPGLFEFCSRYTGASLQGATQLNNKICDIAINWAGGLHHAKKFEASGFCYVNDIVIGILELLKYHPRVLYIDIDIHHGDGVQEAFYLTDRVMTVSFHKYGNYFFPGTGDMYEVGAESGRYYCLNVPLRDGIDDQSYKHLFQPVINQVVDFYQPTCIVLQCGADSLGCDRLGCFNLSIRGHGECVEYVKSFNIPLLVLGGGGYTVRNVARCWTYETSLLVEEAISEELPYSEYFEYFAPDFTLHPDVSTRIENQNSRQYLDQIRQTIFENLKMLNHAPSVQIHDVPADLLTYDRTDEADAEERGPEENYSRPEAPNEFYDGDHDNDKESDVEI
human HDAC3/SMRT heterodimer, sequence (Q9Y618 1-899 partner): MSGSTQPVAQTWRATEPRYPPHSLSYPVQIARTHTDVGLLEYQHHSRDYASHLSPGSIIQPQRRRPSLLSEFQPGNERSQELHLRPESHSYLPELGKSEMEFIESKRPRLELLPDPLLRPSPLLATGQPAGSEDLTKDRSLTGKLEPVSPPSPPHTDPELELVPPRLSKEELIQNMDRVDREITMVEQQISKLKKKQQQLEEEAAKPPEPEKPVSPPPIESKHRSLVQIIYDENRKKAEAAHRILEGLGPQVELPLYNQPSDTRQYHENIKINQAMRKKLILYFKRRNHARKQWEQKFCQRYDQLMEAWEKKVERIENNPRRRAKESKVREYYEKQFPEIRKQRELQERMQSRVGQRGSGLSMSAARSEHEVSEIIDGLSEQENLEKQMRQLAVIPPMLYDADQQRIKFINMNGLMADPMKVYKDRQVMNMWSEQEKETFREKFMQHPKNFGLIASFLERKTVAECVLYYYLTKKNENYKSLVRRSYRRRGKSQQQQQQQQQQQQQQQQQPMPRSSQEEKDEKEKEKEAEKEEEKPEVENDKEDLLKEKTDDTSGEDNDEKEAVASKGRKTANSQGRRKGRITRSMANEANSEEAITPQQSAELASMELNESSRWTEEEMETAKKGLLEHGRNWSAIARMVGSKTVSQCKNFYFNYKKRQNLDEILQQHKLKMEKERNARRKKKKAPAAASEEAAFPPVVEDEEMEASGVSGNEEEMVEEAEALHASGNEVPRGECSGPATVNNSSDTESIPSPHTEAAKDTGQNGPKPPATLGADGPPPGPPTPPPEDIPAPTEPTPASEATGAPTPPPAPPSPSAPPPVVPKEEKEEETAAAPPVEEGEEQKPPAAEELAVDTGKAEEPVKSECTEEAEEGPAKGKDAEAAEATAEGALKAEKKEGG

KARN cells (Jurkat 2C4) = assay: cells; conditions: Homo sapiens
Method: KARN Assay Cell Maintenance
KARN cells (Jurkat 2C4) were licensed from the laboratory of Dr. John Karn, Case Western Reserve University, School of Medicine. […] An atmosphere of 5% CO2 and 90% humidity was used for all culture work.
These flasks were returned to the incubator.
The cells were gently resuspended in assay media (30 ml) and pelleted again. […] The cells were counted using the ViCell (Beckman Coulter) and diluted as necessary. […] The plates were covered and returned to the incubator prior to compound addition.
The reference compounds, DMSO and SAHA were then added to the compound plate. […] The final high concentration for SAHA and the test compounds in the assays was 40 μM. The final DMSO concentration in all wells was 0.4%. The minimal induction reference compound used was DMSO and the maximal induction reference compound used was SAHA (2 μM final concentration in the assay).
Day 3: The luciferase detection reagent was prepared by transferring the contents of one bottle of Steady-Glo buffer to one bottle of Steady-Glo aubstrate (Steady-Glo Luciferase Assay System, Promega, catalog number E2520), followed by gently mixing until the substrate was thoroughly dissolved and the solution was equilibrated to room temperature. […] The Steady-Glo Reagent was added to the plates (30 μl/well), which were then covered with a black lid and incubated for 10 minutes at room temperature. The plates were then read for luminescence on an Envision (Perkin Elmer) using the ultrasensitive mode (US LUM), 0.1 counts per second and 384-well aperture. Luminescence counts in the DMSO reference wells were considered as 0% induction, while those in the 2 μM SAHA reference wells were considered as 100% induction. Dose response curves were plotted as test compound concentration (X-axis) vs. percent activation (Y-axis) using a 4-parameter fit based on the Levenberg-Marquardt algorithm.

HDAC6 = HDAC6 (Homo sapiens (Human), UniProt Q9UBN7)
HDAC6, sequence (Q9UBN7 whole entry): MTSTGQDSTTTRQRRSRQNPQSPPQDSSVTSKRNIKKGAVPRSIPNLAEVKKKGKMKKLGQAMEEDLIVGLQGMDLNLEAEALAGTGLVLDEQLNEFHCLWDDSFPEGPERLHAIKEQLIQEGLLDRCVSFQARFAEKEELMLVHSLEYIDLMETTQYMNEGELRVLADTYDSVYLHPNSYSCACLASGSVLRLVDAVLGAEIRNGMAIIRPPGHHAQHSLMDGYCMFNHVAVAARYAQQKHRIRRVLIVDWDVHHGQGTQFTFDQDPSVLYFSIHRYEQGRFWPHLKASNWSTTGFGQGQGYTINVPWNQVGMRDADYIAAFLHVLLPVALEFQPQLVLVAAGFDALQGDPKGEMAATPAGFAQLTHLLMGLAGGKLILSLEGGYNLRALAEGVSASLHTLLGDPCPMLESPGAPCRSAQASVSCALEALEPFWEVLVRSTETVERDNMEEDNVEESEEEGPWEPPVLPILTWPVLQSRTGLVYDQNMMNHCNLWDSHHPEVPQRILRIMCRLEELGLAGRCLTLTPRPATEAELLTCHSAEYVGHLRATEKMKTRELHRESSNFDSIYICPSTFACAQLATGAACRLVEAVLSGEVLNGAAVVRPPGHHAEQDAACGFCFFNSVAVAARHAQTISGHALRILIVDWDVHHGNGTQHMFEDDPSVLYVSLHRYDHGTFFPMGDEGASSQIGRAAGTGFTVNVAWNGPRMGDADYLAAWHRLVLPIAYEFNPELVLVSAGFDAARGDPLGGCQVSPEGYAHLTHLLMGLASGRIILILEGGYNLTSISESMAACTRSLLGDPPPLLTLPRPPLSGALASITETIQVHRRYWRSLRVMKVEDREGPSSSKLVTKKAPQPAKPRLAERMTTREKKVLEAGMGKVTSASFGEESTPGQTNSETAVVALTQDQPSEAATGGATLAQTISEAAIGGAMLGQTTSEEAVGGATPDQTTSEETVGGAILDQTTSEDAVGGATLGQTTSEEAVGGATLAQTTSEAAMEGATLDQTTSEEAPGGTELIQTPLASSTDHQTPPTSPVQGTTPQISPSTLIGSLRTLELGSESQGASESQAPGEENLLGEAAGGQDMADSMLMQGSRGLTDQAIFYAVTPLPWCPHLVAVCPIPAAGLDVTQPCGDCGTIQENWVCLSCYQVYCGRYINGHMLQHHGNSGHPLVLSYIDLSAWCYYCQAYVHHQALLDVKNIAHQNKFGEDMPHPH

[2] = read-out: Karn EC50 nM 0.1% NHS, 0.1% normal human serum, luciferase induction, 2 μM SAHA = 100%
[3] = read-out: Karn EC50 nM 5% NHS, 5% normal human serum, luciferase induction, 2 μM SAHA = 100%

human HDAC2, sequence (Q92769 whole entry): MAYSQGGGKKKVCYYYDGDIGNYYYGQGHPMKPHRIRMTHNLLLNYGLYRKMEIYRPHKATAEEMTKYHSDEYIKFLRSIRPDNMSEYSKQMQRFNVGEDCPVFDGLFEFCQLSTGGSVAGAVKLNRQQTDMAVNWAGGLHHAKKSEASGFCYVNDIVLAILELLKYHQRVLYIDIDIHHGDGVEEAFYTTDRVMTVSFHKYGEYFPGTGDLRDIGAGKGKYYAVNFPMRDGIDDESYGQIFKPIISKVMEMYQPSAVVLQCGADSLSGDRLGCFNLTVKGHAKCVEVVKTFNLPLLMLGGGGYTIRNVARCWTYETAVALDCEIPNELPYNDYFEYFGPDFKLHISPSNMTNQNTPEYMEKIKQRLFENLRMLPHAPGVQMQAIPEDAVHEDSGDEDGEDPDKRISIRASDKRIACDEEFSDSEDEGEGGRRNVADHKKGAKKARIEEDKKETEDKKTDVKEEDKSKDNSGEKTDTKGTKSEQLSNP

Row | SMILES | IC50 (human HDAC2) | IC50 (human HDAC8) | IC50 (human HDAC1) | IC50 [1] | EC50 (KARN cells (Jurkat 2C4); [2]) | EC50 (KARN cells (Jurkat 2C4); [3]) | IC50 (HDAC6)
1 | COc1nc2ccccc2cc1-c1cnc([C@H](CCCCCC(=O)c2ncco2)NC(=O)C2(c3ccncc3)CC2)[nH]1 [Example 151, N-[(1S)-1-[5-(2-methoxyquinolin-3-yl)-1H-imidazol-2-yl]-7-(1,3-oxazol-2-yl)-7-oxoheptyl]-1-pyridin-4-ylcyclopropanecarboxamide] | 7.8 nM | 57 nM | 2 nM | 1.5 nM | 68 nM | 790 nM | 
2 | N[C@@H](CCCCCC(=O)c1ncco1)c1ncc(-c2cnc(C3CC3)cn2)[nH]1 [Example 131, (7S)-7-amino-7-[5-(5-cyclopropylpyrazin-2-yl)-1H-imidazol-2-yl]-1-(1,3-oxazol-2-yl)heptan-1-one] | 23 nM | > 900 nM |  | 9 nM | 1300 nM | 1500 nM | > 900 nM
3 | COc1nc2ccccc2cc1-c1cnc([C@H](CCCCCC(=O)c2ncco2)NC(=O)c2cc3n(n2)CCCC3)[nH]1 [Example 154] | 20 nM | 110 nM | 5.1 nM | 2 nM | 120 nM | 570 nM | 
4 | COc1nc2ccccc2cc1-c1cnc([C@H](CCCCCC(=O)c2ncco2)NC(=O)c2ccc(OC(F)F)nc2)[nH]1 [Example 146, 6-(difluoromethoxy)-N-[(1S)-1-[5-(2-methoxyquinolin-3-yl)-1H-imidazol-2-yl]-7-(1,3-oxazol-2-yl)-7-oxoheptyl]pyridine-3-carboxamide] | 16 nM | 96 nM | 5.3 nM | 2.3 nM | 130 nM | 440 nM | 
5 | COc1nc2ccccc2cc1-c1cnc([C@H](CCCCCC(=O)c2ncco2)NC(=O)c2nc3ccccc3o2)[nH]1 [Example 153, N-[(1S)-1-[5-(2-methoxyquinolin-3-yl)-1H-imidazol-2-yl]-7-(1,3-oxazol-2-yl)-7-oxoheptyl]-1,3-benzoxazole-2-carboxamide] | 15 nM | 167 nM | 8.5 nM | 4.2 nM | 100 nM | 560 nM | 
6 | N[C@H](CCCCCC(=O)c1ccon1)c1cc(-c2ccc(F)cc2)on1 [Example 119, (R)-7-amino-7-(5-(4-fluorophenyl)isoxazol-3-yl)-1-(isoxazol-3-yl)heptan-1-one] | 420 nM | 260 nM | 96 nM |  | 10000 nM |  | 45000 nM
7 | COc1nc2ccccc2cc1-c1cnc([C@H](CCCCCC(=O)c2ncco2)NC(=O)[C@@H]2CCC(=O)N2)[nH]1 [Example 157, N-[(1S)-1-[5-(2-methoxyquinolin-3-yl)-1H-imidazol-2-yl]-7-(1,3-oxazol-2-yl)-7-oxoheptyl]-5-oxo-L-prolinamide] | 4.1 nM |  | 0.64 nM | 1 nM | 77 nM | 380 nM | 
8 | COc1nc2ccccc2cc1-c1cnc([C@H](CCCCCC(=O)c2ncco2)NC(=O)CCCN(C)C)[nH]1 [Example 55] | 2.1 nM |  | 0.3 nM | 0.48 nM | 12 nM | 32 nM | 140 nM
9 | N[C@@H](CCCCCC(=O)c1ccon1)c1cc(-c2ccc(F)cc2)on1 [Example 118, (S)-7-amino-7-(5-(4-fluorophenyl)isoxazol-3-yl)-1-(isoxazol-3-yl)heptan-1-one] | 8 nM | 300 nM | 2.4 nM |  | 780 nM | 1600 nM | 45000 nM
10 | N[C@@H](CCCCCC(=O)c1ncco1)c1ncc(-c2ccc(OC(F)(F)F)cc2F)[nH]1 [Example 141, (7S)-7-amino-7-{5-[2-fluoro-4-(trifluoromethoxy)phenyl]-1H-imidazol-2-yl}-1-(1,3-oxazol-2-yl)heptan-1-one] |  | > 900 nM |  |  | 2400 nM | 3500 nM | > 900 nM
11 | CCN[C@@H](CCCCCC(=O)c1ncco1)c1ncc(-c2cc3ccc(=O)n(C)c3cc2OC)[nH]1 [Example 77, (S)-6-(2-(1-(ethylamino)-7-(oxazol-2-yl)-7-oxoheptyl)-1H-imidazol-5-yl)-7-methoxy-1-methylquinolin-2(1H)-one] |  | > 900 nM |  |  | 120 nM | 120 nM | > 900 nM
12 | Cn1cc2cc(-n3ccc([C@H](N)CCCCCC(=O)c4ncco4)n3)ccc2n1 [Example 127, (7R)-7-amino-7-[1-(2-methyl-2H-indazol-5-yl)-1H-pyrazol-3-yl]-1-(1,3-oxazol-2-yl)heptan-1-one] | 2600 nM |  | 480 nM | 770 nM |  |  | 
13 | CN1CCC1C(=O)N[C@@H](CCCCCC(=O)c1ccon1)c1ncc(-c2ccccc2F)[nH]1 (stereo partly shown) [Example 60] | 0.41 nM | 1.7 nM | 0.13 nM |  | 4.2 nM | 9 nM | > 900 nM
14 | CN1CC(C(=O)N[C@@H](CCCCCC(=O)c2ncco2)c2nc(-c3ccc(F)cc3)c[nH]2)C1 [Example 1, (S)-N-(1-(4-(4-fluorophenyl)-1H-imidazol-2-yl)-7-(oxazol-2-yl)-7-oxoheptyl)-1-methylazetidine-3-carboxamide] |  |  | 1.1 nM |  |  |  | 45000 nM
15 | COc1nc2ccccc2cc1-c1cnc([C@H](CCCCCC(=O)c2ncco2)NC(=O)CN2CCCC2)[nH]1 [Example 52] | 2.5 nM | 44 nM | 0.56 nM | 1.1 nM | 23 nM | 81 nM | 
16 | N[C@@H](CCCCCC(=O)c1ncco1)c1ncc(-c2cc(F)ccc2F)[nH]1 [Example 135, (7S)-7-amino-7-[5-(2,5-difluorophenyl)-1H-imidazol-2-yl]-1-(1,3-oxazol-2-yl)heptan-1-one] |  | > 900 nM |  |  | 5600 nM | 13000 nM | > 900 nM
17 | COc1cc2nc(C)ccc2cc1-c1cnc([C@H](CCCCCC(=O)c2ncco2)NC2CCOCC2)[nH]1 [Example 80, (S)-7-(5-(7-methoxy-2-methylquinolin-6-yl)-1H-imidazol-2-yl)-1-(oxazol-2-yl)-7-((tetrahydro-2H-pyran-4-yl)amino)heptan-1-one] | 10 nM | 3500 nM |  | 5.7 nM | 550 nM | 680 nM | 15000 nM
18 | COc1nc2ccccc2cc1-c1cnc([C@H](CCCCCC(=O)c2ncco2)NC(=O)CN2CCOCC2)[nH]1 [Example 54] | 6.3 nM | 88 nM | 2 nM | 1.5 nM | 76 nM | 680 nM | 
19 | COc1cc2nc(C)ccc2cc1-c1cnc([C@H](CCCCCC(=O)c2ncco2)NC(=O)Cn2cccn2)[nH]1 [Example 160, N-[(1S)-1-[5-(7-methoxy-2-methylquinolin-6-yl)-1H-imidazol-2-yl]-7-(1,3-oxazol-2-yl)-7-oxoheptyl]-2-(1H-pyrazol-1-yl)acetamide] | 5.5 nM | 71 nM |  | 0.54 nM | 48 nM | 120 nM | > 900 nM
20 | COc1nc2ccccc2cc1-c1cnc([C@H](CCCCCC(=O)c2ncco2)NC(=O)[C@H]2CCC(=O)N2)[nH]1 [Example 156, N-[(1S)-1-[5-(2-methoxyquinolin-3-yl)-1H-imidazol-2-yl]-7-(1,3-oxazol-2-yl)-7-oxoheptyl]-5-oxo-D-prolinamide] | 5.4 nM |  | 1.1 nM | 1.1 nM | 88 nM | 420 nM | 
21 | COc1nc2ccccc2cc1-c1cnc([C@H](CCCCCC(=O)c2ncco2)NC(=O)C2(c3cnccn3)CC2)[nH]1 [Example 155, N-[(1S)-1-[5-(2-methoxyquinolin-3-yl)-1H-imidazol-2-yl]-7-(1,3-oxazol-2-yl)-7-oxoheptyl]-1-pyrazin-2-ylcyclopropanecarboxamide] | 5.3 nM | 53 nM | 0.81 nM | 1.3 nM | 50 nM | 600 nM | 
22 | Cc1cc(C(=O)CCCCC[C@H](NC(=O)CN(C)C)c2nc(-c3ccccc3F)c[nH]2)no1 [Example 48] | 1 nM |  | 0.18 nM | 0.15 nM | 28 nM | 69 nM | 45000 nM
23 | NC(CCCCCC(=O)c1ccon1)c1cnn(-c2ccc(F)cc2)c1 (stereo not shown) [Example 121, 7-amino-7-[1-(4-fluorophenyl)-1H-pyrazol-4-yl]-1-isoxazol-3-ylheptan-1-one] |  |  | 15 nM | 14 nM |  |  | 45000 nM
24 | COc1cc2nc(C)ccc2cc1-c1cnc([C@H](CCCCCC(=O)c2ncco2)NC(=O)c2cc3n(n2)CCCC3)[nH]1 [Example 164] | 18 nM |  | 3.3 nM | 0.87 nM | 85 nM | 290 nM | > 900 nM
25 | COc1cc2nc(C)ccc2cc1-c1cnc([C@H](CCCCCC(=O)c2ncco2)NC(=O)CN2CCNCC2=O)[nH]1 [Example 159, N-[(1S)-1-[5-(7-methoxy-2-methylquinolin-6-yl)-1H-imidazol-2-yl]-7-(1,3-oxazol-2-yl)-7-oxoheptyl]-2-(2-oxopiperazin-1-yl)acetamide] | 5.8 nM |  | 0.82 nM | 1.7 nM | 1500 nM | 2900 nM | 2900 nM
26 | NC(CCCCCC(=O)c1ccon1)c1cnn(-c2ccc(F)cc2)c1 (stereo not shown) [Example 122, 7-amino-7-[1-(4-fluorophenyl)-1H-pyrazol-4-yl]-1-isoxazol-3-ylheptan-1-one] |  |  | 500 nM | 570 nM |  |  | 

— patent US12331044B2, “Inhibitors of histone deacetylase useful for the treatment or prevention of HIV infection” (Merck Sharp & Dohme LLC, priority 2018, dated 2025)
